From PubChem BioAssay (NCI)
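96-well plates; 48 h exposure; 5 concentrations. Endpoints by linear interpolation between flanking doses. Not reached: highest tested concentration assigned. TGI: total growth inhibition.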

Assays:
Assay in all cases: growth of human tumour cells (NCI), 48 h
HL-60(TB) leukemia = tested on: HL-60(TB) leukemia
HT29 colon = tested on: HT29 colon
CCRF-CEM leukemia = tested on: CCRF-CEM leukemia
MDA-MB-435 = tested on: MDA-MB-435
MOLT-4 leukemia = tested on: MOLT-4 leukemia
SF-539 CNS = tested on: SF-539 CNS
MCF7 breast = tested on: MCF7 breast
MALME-3M melanoma = tested on: MALME-3M melanoma
CAKI-1 renal = tested on: CAKI-1 renal
M14 melanoma = tested on: M14 melanoma
SNB-19 CNS = tested on: SNB-19 CNS
OVCAR-5 ovarian = tested on: OVCAR-5 ovarian
ACHN renal = tested on: ACHN renal
OVCAR-4 ovarian = tested on: OVCAR-4 ovarian
LOX IMVI melanoma = tested on: LOX IMVI melanoma
HCC-2998 colon = tested on: HCC-2998 colon
NCI/ADR-RES ovarian = tested on: NCI/ADR-RES ovarian
SK-OV-3 ovarian = tested on: SK-OV-3 ovarian
A498 renal = tested on: A498 renal
RXF 393 renal = tested on: RXF 393 renal
SF-295 CNS = tested on: SF-295 CNS
SK-MEL-28 melanoma = tested on: SK-MEL-28 melanoma
OVCAR-8 ovarian = tested on: OVCAR-8 ovarian
SK-MEL-2 melanoma = tested on: SK-MEL-2 melanoma
HOP-62 NSCLC = tested on: HOP-62 NSCLC
MDA-N = tested on: MDA-N
DU-145 prostate = tested on: DU-145 prostate
SW-620 colon = tested on: SW-620 colon
OVCAR-3 ovarian = tested on: OVCAR-3 ovarian
HCT-15 colon = tested on: HCT-15 colon
786-0 renal = tested on: 786-0 renal
NCI-H522 lung = tested on: NCI-H522 lung
SR leukemia = tested on: SR leukemia
A549 NSCLC = tested on: A549 NSCLC
TK-10 renal = tested on: TK-10 renal
PC-3 prostate = tested on: PC-3 prostate
HCT-116 colon = tested on: HCT-116 colon
KM12 colon = tested on: KM12 colon
COLO 205 colon = tested on: COLO 205 colon
IGROV1 ovarian = tested on: IGROV1 ovarian
SN12C renal = tested on: SN12C renal
SK-MEL-5 melanoma = tested on: SK-MEL-5 melanoma
UO-31 renal = tested on: UO-31 renal
RPMI-8226 leukemia = tested on: RPMI-8226 leukemia
U251 CNS = tested on: U251 CNS
NCI-H226 lung = tested on: NCI-H226 lung
K-562 leukemia = tested on: K-562 leukemia
NCI-H23 lung = tested on: NCI-H23 lung
UACC-257 melanoma = tested on: UACC-257 melanoma
SF-268 CNS = tested on: SF-268 CNS
HS 578T breast = tested on: HS 578T breast
T-47D breast = tested on: T-47D breast
NCI-H460 lung = tested on: NCI-H460 lung
UACC-62 melanoma = tested on: UACC-62 melanoma
MDA-MB-231 breast = tested on: MDA-MB-231 breast

Question: For `Cc1nc2ccc(Cl)cc2c2c1CCS2`, which TGI (HL-60(TB) leukemia) is on record?
Answer: Its TGI is 65 µM.

Question: And the TGI (HT29 colon)?
Answer: Its TGI is > 100 µM.

Question: What about the TGI (CCRF-CEM leukemia) of the same compound?
Answer: The TGI was > 100 µM.

Question: And the TGI (MDA-MB-435)?
Answer: Its TGI is > 100 µM.

Question: And the TGI (MOLT-4 leukemia)?
Answer: Its TGI is 74.3 µM.

Question: What about the TGI (SF-539 CNS) of the same compound?
Answer: The TGI was > 100 µM.

Question: What about the TGI (MCF7 breast) of the same compound?
Answer: Its TGI is > 100 µM.

Question: And the TGI (MALME-3M melanoma)?
Answer: Its TGI is > 100 µM.

Question: What about the TGI (CAKI-1 renal) of the same compound?
Answer: Its TGI is > 100 µM.

Question: And the TGI (M14 melanoma)?
Answer: The TGI was > 100 µM.

Question: And the TGI (SNB-19 CNS)?
Answer: Its TGI is > 100 µM.

Question: What about the TGI (OVCAR-5 ovarian) of the same compound?
Answer: Its TGI is > 100 µM.

Question: And the TGI (ACHN renal)?
Answer: The TGI was > 100 µM.

Question: And the TGI (OVCAR-4 ovarian)?
Answer: The TGI was > 100 µM.

Question: What about the TGI (LOX IMVI melanoma) of the same compound?
Answer: Its TGI is > 100 µM.

Question: And the TGI (HCC-2998 colon)?
Answer: The TGI was > 100 µM.

Question: What about the TGI (NCI/ADR-RES ovarian) of the same compound?
Answer: Its TGI is > 100 µM.

Question: And the TGI (SK-OV-3 ovarian)?
Answer: Its TGI is > 100 µM.

Question: What about the TGI (A498 renal) of the same compound?
Answer: The TGI was 99.2 µM.

Question: What about the TGI (RXF 393 renal) of the same compound?
Answer: Its TGI is > 100 µM.

Question: And the TGI (SF-295 CNS)?
Answer: The TGI was > 100 µM.

Question: And the TGI (SK-MEL-28 melanoma)?
Answer: Its TGI is > 100 µM.

Question: And the TGI (OVCAR-8 ovarian)?
Answer: The TGI was > 100 µM.

Question: And the TGI (SK-MEL-2 melanoma)?
Answer: Its TGI is > 100 µM.

Question: And the TGI (HOP-62 NSCLC)?
Answer: Its TGI is > 100 µM.

Question: What about the TGI (MDA-N) of the same compound?
Answer: Its TGI is > 100 µM.

Question: And the TGI (DU-145 prostate)?
Answer: The TGI was > 100 µM.

Question: What about the TGI (SW-620 colon) of the same compound?
Answer: Its TGI is > 100 µM.

Question: And the TGI (OVCAR-3 ovarian)?
Answer: Its TGI is > 100 µM.

Question: What about the TGI (HCT-15 colon) of the same compound?
Answer: Its TGI is > 100 µM.

Question: What about the TGI (786-0 renal) of the same compound?
Answer: Its TGI is > 100 µM.

Question: And the TGI (NCI-H522 lung)?
Answer: Its TGI is > 100 µM.

Question: And the TGI (SR leukemia)?
Answer: Its TGI is 86.6 µM.

Question: And the TGI (A549 NSCLC)?
Answer: The TGI was > 100 µM.

Question: What about the TGI (TK-10 renal) of the same compound?
Answer: The TGI was > 100 µM.

Question: What about the TGI (PC-3 prostate) of the same compound?
Answer: Its TGI is > 100 µM.

Question: And the TGI (HCT-116 colon)?
Answer: Its TGI is > 100 µM.

Question: What about the TGI (KM12 colon) of the same compound?
Answer: The TGI was > 100 µM.

Question: What about the TGI (COLO 205 colon) of the same compound?
Answer: The TGI was > 100 µM.

Question: What about the TGI (IGROV1 ovarian) of the same compound?
Answer: Its TGI is > 100 µM.

Question: And the TGI (SN12C renal)?
Answer: Its TGI is > 100 µM.

Question: And the TGI (SK-MEL-5 melanoma)?
Answer: Its TGI is 77.7 µM.

Question: What about the TGI (UO-31 renal) of the same compound?
Answer: Its TGI is > 100 µM.

Question: What about the TGI (RPMI-8226 leukemia) of the same compound?
Answer: Its TGI is 71.4 µM.

Question: What about the TGI (U251 CNS) of the same compound?
Answer: Its TGI is > 100 µM.

Question: And the TGI (NCI-H226 lung)?
Answer: Its TGI is > 100 µM.

Question: And the TGI (K-562 leukemia)?
Answer: The TGI was > 100 µM.

Question: And the TGI (NCI-H23 lung)?
Answer: Its TGI is > 100 µM.

Question: What about the TGI (UACC-257 melanoma) of the same compound?
Answer: The TGI was > 100 µM.

Question: What about the TGI (SF-268 CNS) of the same compound?
Answer: Its TGI is > 100 µM.

Question: And the TGI (HS 578T breast)?
Answer: The TGI was > 100 µM.

Question: What about the TGI (T-47D breast) of the same compound?
Answer: Its TGI is > 100 µM.

Question: And the TGI (NCI-H460 lung)?
Answer: Its TGI is > 100 µM.

Question: What about the TGI (UACC-62 melanoma) of the same compound?
Answer: The TGI was > 100 µM.

Question: What about the TGI (MDA-MB-231 breast) of the same compound?
Answer: Its TGI is > 100 µM.
